Measurements reported in PMC5328764 (Physiological Reports, 2017).

Experiments:
[1] = tested on: healthy volunteers; experiment: Plasma glucose after s.c. injection (glucose oxidase method); assay type: in vivo, human
Protocol: Plasma glucose was measured by the glucose oxidase method using a glucose analyzer (Yellow Springs Instrument, YSI Inc., Yellow Springs, OH).
(§1) Intravenous access was then established. […] Baseline measurements were made twice during the resting period.

[2] = tested on: healthy volunteers; experiment: Serum insulin and C‐peptide after s.c. injection (ECLIA); assay type: in vivo, human; details: fasting healthy volunteers n = 8; for Effect on insulin and C‐peptide (in words): s.c. 1.5 nmol/kg, 0–120 min
Protocol: Plasma insulin and C‐peptide levels were measured on a Cobas® 8000, e602 module (Roche Diagnostics GmbH, Mannheim) using, respectively, Cobas Insulin reagents and Cobas Insulin Calibrator, and Cobas C‐Peptide reagents and Cobas C‐Peptide Calibrator. The Cobas module employs a sandwich electro‐chemiluminescense immunoassay (ECLIA).
as §1
Analyses of normally distributed data were conducted by two‐way ANOVA followed by Tukey post hoc testing if the ANOVA indicated significant differences between the study days.

[3] = tested on: healthy volunteers; experiment: Plasma pancreatic polypeptide (PP) after s.c. injection (radioimmunoassay); assay type: in vivo, human; details: fasting healthy volunteers; s.c. GLP‐1 1.5 nmol/kg; due to excursions in a subset of participants
Text: as §1

[4] = Plasma concentrations of the test substances by radioimmunoassay after s.c. injection; details: eight healthy volunteers
[5] = tested on: healthy volunteers; experiment: Doppler ultrasound blood flow in superior mesenteric artery, celiac trunk and renal artery (RI, TAMV); assay type: in vivo, human; details: healthy volunteers n = 8, s.c. GLP‐1 and GLP‐1 9–36amide 1.5 nmol/kg, exenatide 10 μg, 0–120 min
Text: as §1

[6] = tested on: healthy volunteers; experiment: Cardiovascular measurements by task force monitor (heart rate, blood pressure, cardiac output, stroke volume); assay type: in vivo, human; details: for Effect on heart rate (in words): s.c. GLP‐1 and GLP‐1 9–36amide 1.5 nmol/kg, exenatide 10 μg, 0–120 min, two‐way ANOVA, Tukey post hoc
Protocol: Cardiac parameters were continuously measured from time −15 to 120 min. The task force monitor (TFM; CN Systems, Graz, Austria) continuously measures the heart rate, blood pressure (by finger plethysmography), cardiac output (by impedance cardiography), and calculates stroke volume (SV). The continuous, beat‐to‐beat measuring of blood pressure was supplemented with the conventional noninvasive oscillometric blood pressure measurement. […] This was done to eliminate brief or short‐lasting changes in cardiac parameters due to accidental movement of the volunteer or slight disturbance during scanning.
as §1

[7] = healthy volunteers n = 8, supine

Row | Compound | Plasma glucose nadir ([1]; fasting healthy volunteers n = 8, s.c. 1.5 nmol/kg, from around 5 mmol/L, nadir at 30 min, mean) | Time of plasma glucose nadir ([1]; fasting healthy volunteers n = 8, s.c. GLP‐1 1.5 nmol/kg, exenatide 10 μg) | Effect on insulin and C‐peptide (in words) [2] | Time until which C‐peptide levels remained elevated ([2]; s.c. GLP‐1 1.5 nmol/kg) | Time of insulin peak ([2]; s.c. GLP‐1 1.5 nmol/kg, exenatide 10 μg (for exenatide insulin and C‐peptide)) | Effect on plasma pancreatic polypeptide (PP) (in words) [3] | Time at which intact GLP‐1 reached basal levels ([4]; 1.5 nmol/kg GLP‐1 s.c.) | Total plasma GLP‐1 concentration, peak mean value on the GLP‐1 day ([4]; 1.5 nmol/kg GLP‐1 s.c., total = GLP‐1 7–36amide + 9–36amide, reached within 15 min, still elevated at 120 min, radioimmunoassay, mean) | Time of peak or plateau plasma concentration of the injected peptide (exendin‐4 or total GLP‐1 assay) ([4]; s.c., exenatide 10 μg, GLP‐1 and GLP‐1 9–36amide 1.5 nmol/kg) | Changes in blood flow parameters in the mesenteric or renal arteries [5] | Time of peak heart rate increase ([6]; healthy volunteers n = 8, supine, s.c. GLP‐1 1.5 nmol/kg) | Maximum increase in heart rate ([6]; healthy volunteers n = 8, supine, s.c. GLP‐1 1.5 nmol/kg, peaking at 30 min) | Effect on heart rate (in words) [6, 7] | Effect on cardiac output (in words) ([6]; healthy volunteers n = 8, impedance cardiography, 120 min period, on the placebo day decrease by about 1 L/min) | Effect on stroke volume (in words) ([6]; healthy volunteers n = 8, s.c. GLP‐1 1.5 nmol/kg, lower values at 15 and 30 min) | Effect on plasma glucose (in words) ([1]; fasting healthy volunteers n = 8, s.c. exenatide 10 μg, GLP‐1 9–36amide 1.5 nmol/kg, 0–120 min) | Time at which GLP‐1 9–36amide concentrations reached near basal levels ([4]; 1.5 nmol/kg GLP‐1 9–36amide s.c.) | Plasma concentration of the metabolite GLP‐1 9–36amide (total GLP‐1 assay), peak ([4]; 1.5 nmol/kg GLP‐1 9–36amide s.c., at 30 min, radioimmunoassay, mean)
1 | CC[C@H](C)[C@H](NC(=O)[C@H](Cc1ccccc1)NC(=O)[C@H](CCC(=O)O)NC(=O)[C@H](CCCCN)NC(=O)[C@H](C)NC(=O)[C@H](C)NC(=O)[C@H](CCC(N)=O)NC(=O)CNC(=O)[C@H](CCC(=O)O)NC(=O)[C@H](CC(C)C)NC(=O)[C@H](Cc1ccc(O)cc1)NC(=O)[C@H](CO)NC(=O)[C@H](CO)NC(=O)[C@@H](NC(=O)[C@H](CC(=O)O)NC(=O)[C@H](CO)NC(=O)[C@@H](NC(=O)[C@H](Cc1ccccc1)NC(=O)[C@@H](NC(=O)CNC(=O)[C@H](CCC(=O)O)NC(=O)[C@H](C)NC(=O)[C@@H](N)Cc1c[nH]cn1)[C@@H](C)O)[C@@H](C)O)C(C)C)C(=O)N[C@@H](C)C(=O)N[C@@H](Cc1c[nH]c2ccccc12)C(=O)N[C@@H](CC(C)C)C(=O)N[C@H](C(=O)N[C@@H](CCCCN)C(=O)NCC(=O)N[C@@H](CCCNC(=N)N)C(N)=O)C(C)C [GLP‐1, glucagon‐like peptide‐1] | 3.5 mmol/L | 30 min | caused a rise in insulin | 60 min | 15 min | mean PP levels rose late | around 90 min | around 300 pmol/L | ≤ 15 min | Neither GLP‐1, GLP‐1_9–36 amide, exenatide nor saline elicited any changes in blood flow parameters | 30 min | about 14 beats per min | significantly increased heart rate | tended to rise | appeared to fall more |  |  | 
2 | GLP‐1_9–36amide |  |  | no significant changes |  |  |  |  |  |  | Neither GLP‐1, GLP‐1_9–36 amide, exenatide nor saline elicited any changes in blood flow parameters |  |  | remained stable |  |  | Neither saline nor the metabolite, GLP‐1_9–36amide influenced plasma glucose levels | 120 min | about 290 pmol/L
